Results published in patent US20240197729A1, “ALK-5 Inhibitors and Uses Thereof” (Sumitomo Pharma Oncology, Inc., priority 2021, published 2024).
pIC50: −log10 of the molar value.

Assays:
[1] = tested on: BMP-6/ALK2/Hepcidin pathway; test: ALK2 off-target assay, hepcidin mRNA in HepG2 hepatocytes; format: cell-based, human; conditions: Homo sapiens; HepG2, 40 ng/ml BMP-6, 3 h; read-out: IC50, hepcidin mRNA expression
Experimental: In this study, LDN214117 (an ALK2 inhibitor available from Selleck Chemicals S7627) was included as a positive control, and vactosertib (an ALK5 inhibitor available from MedChem Express HY-19928) was included as a negative control.
HepG2 human hepatocytes (ATCC HB-8065) were seeded in EMEM (ATCC30-2003)+10% FBS in 96-well plate and allowed to grow overnight at 5% CO2 at 37° C. The next day, cells were pre-treated with selected compounds (Compound 01, 04 or 05) or one of the control compounds at various concentrations, or with vehicle (DMSO) for one hour. Cells were then stimulated with recombinant human BMP-6 (R&D Systems 507-BP-020) at a final concentration of 40 ng/ml, in the presence of test compound or DMSO for three hours. A no-BMP-6 stimulation condition was included for baseline hepcidin level measurement.
Hepcidin mRNA expression was measured by real-time RT-PCR with Cells-to-CT 1-Step TaqMan Kit (ThermoFisher A25603) following manufacturer's instructions. GAPDH levels were measured, and served as a normalization control. Hepcidin primer: TaqMan HAMP-FAM/MGB 20×(ThermoFisher 4331182); GAPDH primer: TaqMan GAPDH-VIC/MGB 20×(ThermoFisher 4326317E). Delta-delta Ct method was used to obtain relative Hepcidin expression.
The selected compounds and control compounds LDN214117 and vactosertib were tested at drug concentrations of 20 micromolar to 1.22 nanomolar at 4-fold serial dilution. All wells contained the same DMSO concentrations. IC50 values were calculated using nonlinear regression model with GraphPad Prism software. The results of the ALK-2 off-target assay are reported in Table 3B, where “++” indicates 0.1 μM<IC50≤1 μM and “+++” indicates […].

[2] = tested on: phospho-SMAD-2 (Ser465/Ser467); test: A549 xenograft assay, p-SMAD2; format: in vivo, mice; conditions: for Average % p-SMAD2 (Ser 465/467) of vehicle: tumors 4 h after dosing; for efficacious dose derived from p-SMAD2 inhibition in the A549 xenograft mouse model: per oral gavage
From the text: (§1) To test compounds for inhibition of in vivo on-target activity (ALK5/TGF-bR1 inhibition) as well as potential Janus Kinase (JAK) signaling off-target activity, the A549 murine xenograft model was utilized. An ALK5 inhibitor (e.g., vactosertib) is expected to reduce the amount of the TGF-beta signaling molecule phospho-SMAD-2 (pSMAD2) in the A549 xenograft cells. The TGF-beta-mediated phosphorylation of SMAD2 in A549 cells takes place at amino acid residue four hundred and sixty-five and four hundred and sixty-seven (both are serine residues). A JAK inhibitor (e.g., ruxolitinib) is expected to reduce the phosphorylation of signal transducer and activator of transcription (STAT) proteins such as STAT3 at amino acid residue 705 (tyrosine).
(§2) At eight weeks of age, female athymic nude mice (purchased from Charles River) were injected with approximately 3.5 million A549 cells (ATCC, CCL-185). Specifically, cells were harvested and resuspended in plain RPMI media (no phenol red added) and Matrigel (Corning 356237) at a one to one ratio, and two hundred-microliters were injected into the right hind flank of each mouse. Tumors were measured every three days by caliper and as tumors reached an average of seventy-eighty millimeters cubed, mice were randomized in groups of three. All compounds were resuspended in 1-methyl-2-pyrrolidinone (Sigma 494496) (10%) plus 20% Solutol (Sigma 42966) in water (90%). Vactosertib and ruxolitinib were included as controls as ALK5 signaling inhibitor and JAK signaling inhibitor, respectively. Both controls were given at seventy-five milligrams per kilogram to three mice. The drug suspensions were sonicated for fifteen minutes to generate a fine particle suspension before being given to the mice. Mice were dosed (per oral gavage) with drug at one hundred, seventy-five, fifty, or ten milligrams per kilogram, with three mice per group. A vehicle control group with three mice was used to establish the baseline level of phospho-SMAD-2 in the tumor xenograft.
(§3) Four hours after drug administration, tumors were harvested, snap frozen and stored at negative eighty degrees Celsius until further processing. The phospho-SMAD-2 levels were determined using the Bio-Plex Pro™ Phospho-Smad2 (Ser465/Ser467) Set (BioRad 171V50019M). The phospho STAT3 levels were determined using the bead/antibody set from the MILLIPLEXMAP STAT Cell Signaling Magnetic Bead 5-Plex Kit (Millipore 48-610MAG). Both phospho SMAD-2 levels and phospho STAT3 levels were normalized to ß-Tubulin (MILLIPLEX MAP ß-Tubulin Total Magnetic Bead MAPmate™, Millipore 46-713MAG) or GAPDH (MILLIPLEX MAP GAPDH Total Magnetic Bead MAPmate™, Millipore 46-667MAG) levels from each sample. All analytes were analyzed in a multiplex fashion with the Bio-Plex Pro Cell Signaling Reagent Kit (BioRad 171304006M). Briefly, frozen tumor (fifteen to thirty milligrams) was lysed in 100 μl lysis buffer, processed in bead mill tube, and centrifuged. The resulting lysate was used at 1:50 dilution for the assay according to the manufacturer's instructions. Bead suspension was analyzed using the Luminex system (MAGPIX).

p-STAT3 (Tyr 705) = test: A549 xenograft assay, p-STAT3; format: in vivo, mice; conditions: tumors 4 h after dosing
From the text: as §1, §2, §3

[3] = tested on: SMAD signaling triggered by myostatin; test: Myostatin-triggered SMAD signaling in RDSR cells; format: cell-based; conditions: Homo sapiens, 50 ng/ml myostatin, 24 h
Experimental: To determine the ability of compounds to inhibit the SMAD signaling triggered by myostatin, and therefore possibly help alleviate cachexia in cancer patients, the following assay was performed. The RD cell line, a human rhabdomyosarcoma cell line, was purchased from ATCC (CCL-136) and a stably SMAD reporter plasmid (Promega, pGL4.48[luc2P/SBE/Hygro]) was introduced to create the RD SMAD Reporter (RDSR) cell line. Twenty thousand RDSR cells were seeded into a 96-well plate (Greiner bio-one 655083) in DMEM media supplemented with 10% fetal bovine serum. Cells were pre-incubated with selected compounds at various concentrations (8-point curve ranging from 10 micromolar to 610 picomolar) for one hour, then were stimulated with 50 nanograms per milliliter myostatin (R&D, 788-G8-010) for twenty-four hours. The luciferase signal was then read out with One-Glo substrate on the Envision plate reader.

| SMILES | pIC50 [1] | Average % p-SMAD2 (Ser 465/467) of vehicle ([2]; 10 mg/kg per oral gavage) | Average % p-SMAD2 (Ser 465/467) of vehicle ([2]; 50 mg/kg per oral gavage) | Average % p-SMAD2 (Ser 465/467) of vehicle ([2]; 75 mg/kg per oral gavage) | Average % p-SMAD2 (Ser 465/467) of vehicle ([2]; 100 mg/kg per oral gavage) | efficacious dose derived from p-SMAD2 inhibition in the A549 xenograft mouse model [2] | Average % p-STAT3 (Tyr 705) of vehicle (p-STAT3 (Tyr 705); 10 mg/kg per oral gavage) | Average % p-STAT3 (Tyr 705) of vehicle (p-STAT3 (Tyr 705); 50 mg/kg per oral gavage) | Average % p-STAT3 (Tyr 705) of vehicle (p-STAT3 (Tyr 705); 75 mg/kg per oral gavage) | Average % p-STAT3 (Tyr 705) of vehicle (p-STAT3 (Tyr 705); 100 mg/kg per oral gavage) | pIC50 [3] | inhibition of the biomarker p-SMAD2 ([2]; seventy-five milligrams per kilogram) |
| --- | --- | --- | --- | --- | --- | --- | --- | --- | --- | --- | --- | --- |
| Cc1nn(CC(F)(F)F)cc1Nc1cc(Nc2cnnc3c(C)cccc23)ccn1 [Compound 01, N2-[3-methyl-1-(2,2,2-trifluoroethyl)-1H-pyrazol-4-yl]-N4-(8-methylcinnolin-4-yl)pyridine-2,4-diamine] | ≤ 6.00 | 97% | 33% | 13% | 8% | seventy-five | 92% | 70% | 66% | 76% | 7.24 | – |
| Cc1cccc(-c2[nH]c(CNc3ccccc3F)nc2-c2ccc3ncnn3c2)n1 [Vactosertib, vactosertib, reference compound] | ≤ 6.00 | – | – | 32% | – | – | – | – | 63% | – | 7.79 | – |
| Cc1cccc2c(Nc3ccnc(Nc4ccc(N5CCOCC5)cc4)c3)cnnc12 [Compound 05, N4-(8-methylcinnolin-4-yl)-N2-[4-(morpholin-4-yl)phenyl]pyridine-2,4-diamine] | 6.00 to 7.00 | 136% | 74% | 11% | 13% | – | 107% | 85% | 77% | 93% | – | – |
| Clc1cccc2c(Nc3ccnc(Nc4cccc(N5CCOCC5)c4)c3)cnnc12 [Compound 04, N4-(8-chlorocinnolin-4-yl)-N2-[3-(morpholin-4-yl)phenyl]pyridine-2,4-diamine] | 6.00 to 7.00 | 69% | 13% | 6% | 7% | fifty | 88% | 73% | 59% | 97% | 7.72 | 94% |
